Reference: patent publication US10183021B2, “sGC stimulators” (Ironwood Pharmaceuticals, Inc., priority 2013, dated 2019)

How the values were obtained:
[1] = biological target: T1, soluble guanylate cyclase (sGC) (Homo sapiens (Human), UniProt Q02108+Q02153); assay: sGC-HEK-cGMP assay, new protocol with DETA-NONOate, LC/MS detection (Example 2C); type: cell-based; conditions: read-out: Absolute EC50 (uM) - binned
Description: Human embryonic kidney cells (HEK293), endogenously expressing soluble guanylate cyclase (sGC), were used to evaluate the activity of test compounds. Compounds stimulating the sGC enzyme should cause an increase in the intracellular concentration of cGMP. HEK 293 cells were seeded in Dulbecco's Modification of Eagle's Medium supplemented with fetal bovine serum (10% final) and penicillin (100 U/mL)/streptomycin (100 μg/mL) in a 50 μL volume at a density of 1.5×10^4 cells/well in a poly-D-lysine coated 384 well flat bottom plate. Cells were incubated overnight at 37° C. in a humidified chamber with 5% CO2. Medium was aspirated and cells were washed with 1× Hank's Buffered Saline Salt Solution (50 μL). Cells were then incubated for 15 minutes at 37° C. with 50 μL of a 0.5 mM 3-isobutyl-1-methylxanthine (IBMX) solution. Test article and Diethylenetriamine NONOate (DETA-NONOate) solutions (x μM concentration for test article solution and 10 μM concentration for DETA-NONOate solution; wherein x is one of the following concentrations);
were then added to the assay mixture and the resulting mixture incubated at 37° C. for 20 minutes. After the 20 minute incubation, the assay mixture was aspirated and 10% acetic acid containing 150 ng/mL+3-cGMP (internal standard for LCMS) (50 μL) was added to the cells. The plate was incubated at 4° C. for 30 minutes in the acetic acid solution to stop the reaction and lyse the cells. The plates were then centrifuged at 1,000 g for 3 minutes at 4° C. and the supernatant transferred to a clean reaction plate for LCMS analysis.
cGMP concentrations were determined from each sample using the LCMS conditions below (Table 5) and calculated standard curve.
Data were normalized to a high control using the following equation: 100*(Sample−Low Control)/(High Control−Low Control), where the low control is the average of 16 samples treated with 1% DMSO, and the high control is the average of 16 samples treated with 30 μM of 1-329 Data were fit using a 4-parameter fit (log(agonist) vs. response—variable slope) using GraphPad Prism Software v.5. n=2 for all compounds. […] Compounds failing to elicit a minimum response of 50% are reported as >30 μM.

[2] = biological target: T1, soluble guanylate cyclase (sGC); assay: sGC-HEK-cGMP assay with SNP incubation, LC/MS detection (Example 2A); type: cell-based; conditions: HEK293 cells, 10 μM SNP, LC/MS detection; for Emax: 100% = BAY 41-2272 at 10 μM, read-out: HEK assay Emax - unconstrained (%); for EC50: top of curve not fitted to 100%, read-out: HEK assay EC50 - unconstrained
In short: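 HEK293 cells with endogenous sGC were pretreated 15 min at 37 °C with 0.5 mM IBMX, then exposed 10 min at 37 °C to compound (added from 0.0001–30 μM solutions) plus SNP (from 10 μM solution). After 0.1 M HCl lysis, cGMP was quantified by LC/MS against a standard curve.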

T1 sequence (Q02153 whole entry): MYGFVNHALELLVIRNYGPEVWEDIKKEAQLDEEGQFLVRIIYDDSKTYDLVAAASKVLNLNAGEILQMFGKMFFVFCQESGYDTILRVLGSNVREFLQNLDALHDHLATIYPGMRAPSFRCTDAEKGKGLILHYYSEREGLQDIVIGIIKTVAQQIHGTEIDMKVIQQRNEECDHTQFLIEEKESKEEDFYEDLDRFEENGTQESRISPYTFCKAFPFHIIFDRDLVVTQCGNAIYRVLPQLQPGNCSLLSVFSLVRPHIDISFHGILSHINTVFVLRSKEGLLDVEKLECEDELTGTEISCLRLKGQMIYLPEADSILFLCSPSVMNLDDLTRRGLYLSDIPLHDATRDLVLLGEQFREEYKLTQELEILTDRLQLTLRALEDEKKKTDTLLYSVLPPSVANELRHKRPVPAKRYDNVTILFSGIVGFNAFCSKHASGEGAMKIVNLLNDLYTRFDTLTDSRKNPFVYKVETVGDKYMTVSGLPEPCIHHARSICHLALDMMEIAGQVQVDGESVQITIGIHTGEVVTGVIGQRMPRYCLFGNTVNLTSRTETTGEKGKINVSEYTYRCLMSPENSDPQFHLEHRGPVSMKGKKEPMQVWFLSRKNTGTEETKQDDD
T1 sequence (Q02108 whole entry): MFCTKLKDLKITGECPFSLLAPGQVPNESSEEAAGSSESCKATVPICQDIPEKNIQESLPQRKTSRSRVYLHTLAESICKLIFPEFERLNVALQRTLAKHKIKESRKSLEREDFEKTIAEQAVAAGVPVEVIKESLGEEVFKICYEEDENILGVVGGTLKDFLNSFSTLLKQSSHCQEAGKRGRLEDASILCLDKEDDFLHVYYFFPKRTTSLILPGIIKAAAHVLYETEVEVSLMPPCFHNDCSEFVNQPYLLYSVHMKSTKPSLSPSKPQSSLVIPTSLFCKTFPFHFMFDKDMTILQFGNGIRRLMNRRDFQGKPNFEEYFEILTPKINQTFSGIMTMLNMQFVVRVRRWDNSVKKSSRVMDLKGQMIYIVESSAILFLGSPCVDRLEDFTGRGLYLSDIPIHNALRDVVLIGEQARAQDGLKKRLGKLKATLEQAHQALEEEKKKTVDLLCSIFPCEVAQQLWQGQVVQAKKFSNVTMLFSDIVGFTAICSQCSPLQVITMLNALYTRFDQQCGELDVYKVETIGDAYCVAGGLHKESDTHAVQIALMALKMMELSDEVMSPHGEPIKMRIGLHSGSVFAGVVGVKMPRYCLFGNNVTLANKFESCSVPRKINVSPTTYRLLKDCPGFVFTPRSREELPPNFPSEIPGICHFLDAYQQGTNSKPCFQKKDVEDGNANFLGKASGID

Emax [2] | EC50 [2] | SMILES | EC50 [1]
– | – | O=C(O)[C@H]1[C@H]2CC[C@H](C2)[C@H]1Nc1nc(-c2cc(-c3ccon3)n(Cc3ccccc3F)n2)ncc1F (racemic) [Compound I-379] | < 0.1 µM
– | – | O=C(O)[C@H]1[C@@H](Nc2nc(-c3cc(-c4ccon4)n(Cc4ccccc4F)n3)ncc2F)[C@@H]2CC[C@H]1O2 (racemic) [Compound I-384] | > 1 µM
– | – | O=C(Nc1ccnc(-c2cc(-c3ccon3)n(Cc3ccccc3F)n2)n1)C(F)(F)F [Compound I-164] | 0.101 to 1 µM
60 to 80% | 0.1 to 0.5 µM | CC(C)[C@H](c1nnn[nH]1)N(C)c1nc(-c2cc(-c3ccon3)n(Cc3ccccc3F)n2)ncc1F [Compound I-237] | –
60 to 80% | 0.5 to 1 µM | O=C(O)[C@H](Nc1nc(-c2cc(-c3ccon3)n(Cc3ccccc3F)n2)ncc1F)C1CC1 [Compound I-240] | –
80 to 100% | 0.1 to 0.5 µM | CN(c1nc(-c2cc(-c3ccon3)n(Cc3ccccc3F)n2)ncc1F)[C@@H](C(=O)O)C1CC1 [Compound I-241] | –
100 to 120% | 0.1 to 0.5 µM | CN(c1nc(-c2cc(-c3ccon3)n(Cc3ccccc3F)n2)ncc1F)[C@@H]1CCCC[C@H]1C(=O)O [Compound I-242] | –
80 to 100% | 0.001 to 0.1 µM | O=C(O)[C@H](Nc1nc(-c2cc(-c3ccon3)n(Cc3ccccc3F)n2)ncc1F)C1CCCCC1 [Compound I-243, (R)-2-cyclohexyl-2-((5-fluoro-2-(1-(2-fluorobenzyl)-5-(isoxazol-3-yl)-1H-pyrazol-3-yl)pyrimidin-4-yl)amino)acetic acid] | –
80 to 100% | 0.5 to 1 µM | CN(c1nc(-c2cc(-c3ccon3)n(Cc3ccccc3F)n2)ncc1F)C(CC(F)(F)F)C(=O)O (centres unmarked) [Compound I-244] | –
40 to 60% | 1 to 5 µM | CCOC(=O)CN(c1nc(-c2cc(-c3ccon3)n(Cc3ccccc3F)n2)ncc1F)C1(C)CCOCC1 [Compound I-246] | –
80 to 100% | 0.001 to 0.1 µM | CCC(C)[C@H](C(=O)O)N(C)c1nc(-c2cc(-c3ccon3)n(Cc3ccccc3F)n2)ncc1F (some centres unmarked) [Compound I-247] | –
60 to 80% | 0.1 to 0.5 µM | CC(C)(C)[C@H](CC(=O)O)Nc1nc(-c2cc(-c3ccon3)n(Cc3ccccc3F)n2)ncc1F [Compound I-251] | –
60 to 80% | 0.001 to 0.1 µM | CCC(CC)(CN(C)c1nc(-c2cc(-c3ccon3)n(Cc3ccccc3F)n2)ncc1F)C(=O)O [Compound I-252] | –
80 to 100% | 0.001 to 0.1 µM | O=C(O)c1ccccc1C1CCN(c2nc(-c3cc(-c4ccon4)n(Cc4ccccc4F)n3)ncc2F)CC1 [Compound I-254] | –
80 to 100% | 0.001 to 0.1 µM | O=C(O)C1(c2ccc(F)cc2)CCN(c2nc(-c3cc(-c4ccon4)n(Cc4ccccc4F)n3)ncc2F)CC1 [Compound I-255] | –
80 to 100% | 0.1 to 0.5 µM | CCC(C)(C)C1(C(=O)O)CCN(c2nc(-c3cc(-c4ccon4)n(Cc4ccccc4F)n3)ncc2F)CC1 [Compound I-256] | –
100 to 120% | 0.1 to 0.5 µM | CC(C)CC(Nc1nc(-c2cc(-c3ccon3)n(Cc3ccccc3F)n2)ncc1F)C(=O)NS(C)(=O)=O (centres unmarked) [Compound I-259] | –
– | – | CC1(C)CCC(C(=O)O)N(c2nc(-c3cc(-c4ccon4)n(Cc4ccccc4F)n3)ncc2F)C1 (centres unmarked) [Compound I-268] | < 0.1 µM
– | – | O=C(O)C12CC(Nc3nc(-c4cc(-c5ccon5)n(Cc5ccccc5F)n4)ncc3F)(C1)C2 [Compound I-269] | > 1 µM
60 to 80% | 0.1 to 0.5 µM | CC(C)[C@@H](C(=O)O)N(C)c1ccnc(-c2cc(-c3ccon3)n(Cc3ccccc3F)n2)n1 [Compound I-272] | –
60 to 80% | 0.5 to 1 µM | O=C(O)CN(CC(F)(F)F)c1nc(-c2cc(-c3ccon3)n(Cc3ccccc3F)n2)ncc1F [Compound I-273] | –
100 to 120% | 0.001 to 0.1 µM | CN(Cc1cccc(C(=O)O)c1)c1nc(-c2cc(-c3ccon3)n(Cc3ccccc3F)n2)ncc1F [Compound I-274] | –
80 to 100% | 0.001 to 0.1 µM | CN(Cc1ccc(C(=O)O)cc1)c1nc(-c2cc(-c3ccon3)n(Cc3ccccc3F)n2)ncc1F [Compound I-275] | –
40 to 60% | 0.1 to 0.5 µM | Fc1ccccc1Cn1nc(-c2ncc(F)c(Nc3nnn[nH]3)n2)cc1-c1ccon1 [Compound I-276] | –

Emax [2] | EC50 [2] | SMILES | EC50 [1]
60 to 80% | 0.1 to 0.5 µM | CC(C)(CC(=O)O)Nc1nc(-c2cc(-c3ccon3)n(Cc3ccccc3F)n2)ncc1F [Compound I-277] | –
80 to 100% | 0.1 to 0.5 µM | O=c1ccc(CNc2nc(-c3cc(-c4ccon4)n(Cc4ccccc4F)n3)ncc2F)c[nH]1 [Compound I-278] | –
80 to 100% | 0.1 to 0.5 µM | CN(Cc1ccccc1C(=O)O)c1nc(-c2cc(-c3ccon3)n(Cc3ccccc3F)n2)ncc1F [Compound I-279] | –
100 to 120% | 0.1 to 0.5 µM | O=C(O)c1ccc(CNc2nc(-c3cc(-c4ccon4)n(Cc4ccccc4F)n3)ncc2F)cc1 [Compound I-280] | –
100 to 120% | 0.001 to 0.1 µM | O=C(NS(=O)(=O)N1CCN(c2nc(-c3cc(-c4ccon4)n(Cc4ccccc4F)n3)ncc2F)CC1)C1CC1 [Compound I-285] | –
80 to 100% | 0.001 to 0.1 µM | Oc1ccc(CNc2nc(-c3cc(-c4ccon4)n(Cc4ccccc4F)n3)ncc2F)cc1 [Compound I-286] | –
80 to 100% | 0.1 to 0.5 µM | CS(=O)(=O)c1ccc(CNc2nc(-c3cc(-c4ccon4)n(Cc4ccccc4F)n3)ncc2F)cc1 [Compound I-287] | –
80 to 100% | 0.1 to 0.5 µM | Oc1ccccc1CNc1nc(-c2cc(-c3ccon3)n(Cc3ccccc3F)n2)ncc1F [Compound I-288] | –
60 to 80% | 0.1 to 0.5 µM | CC1(CC(=O)O)CCN(c2nc(-c3cc(-c4ccon4)n(Cc4ccccc4F)n3)ncc2F)CC1 [Compound I-289] | –
60 to 80% | 0.1 to 0.5 µM | O=C(O)C1(C2CCCCC2)CCN(c2nc(-c3cc(-c4ccon4)n(Cc4ccccc4F)n3)ncc2F)CC1 [Compound I-290] | –
80 to 100% | 0.001 to 0.1 µM | O=C(O)C(CCNc1nc(-c2cc(-c3ccon3)n(Cc3ccccc3F)n2)ncc1F)c1ccccc1 (centres unmarked) [Compound I-292] | –
60 to 80% | 0.1 to 0.5 µM | COC(=O)C1(N)CCN(c2nc(-c3cc(-c4ccon4)n(Cc4ccccc4F)n3)ncc2F)CC1 [Compound I-298] | –
40 to 60% | 1 to 5 µM | NC1(C(=O)O)CCN(c2nc(-c3cc(-c4ccon4)n(Cc4ccccc4F)n3)ncc2F)CC1 [Compound I-299] | –
60 to 80% | 1 to 5 µM | O=C(O)[C@@H]1CC(F)(F)CN1c1nc(-c2cc(-c3ccon3)n(Cc3ccccc3F)n2)ncc1F [Compound I-301] | –
– | – | O=C(O)C12CC1CCCN2c1nc(-c2cc(-c3ccon3)n(Cc3ccccc3F)n2)ncc1F (centres unmarked) [Compound I-308] | 0.101 to 1 µM
– | – | CN(c1nc(-c2cc(-c3ccon3)n(Cc3ccccc3F)n2)ncc1F)[C@@H]1CC[C@H](C(=O)O)C1 [Compound I-309] | < 0.1 µM
– | – | C[C@@H]1[C@H](C(=O)O)CCCN1c1nc(-c2cc(-c3ccon3)n(Cc3ccccc3F)n2)ncc1F [Compound I-310] | < 0.1 µM
– | – | C[C@H]1[C@@H](C(=O)O)CCCN1c1nc(-c2cc(-c3ccon3)n(Cc3ccccc3F)n2)ncc1F [Compound I-311] | 0.101 to 1 µM
– | – | O=C(O)C12CC1CN(c1nc(-c3cc(-c4ccon4)n(Cc4ccccc4F)n3)ncc1F)C2 (centres unmarked) [Compound I-312] | 0.101 to 1 µM
– | – | C[C@@H]1CN(c2nc(-c3cc(-c4ccon4)n(Cc4ccccc4F)n3)ncc2F)C[C@@H]1C(=O)O [Compound I-314] | < 0.1 µM
– | – | Oc1c(F)cc(CNc2nc(-c3cc(-c4ccon4)n(Cc4ccccc4F)n3)ncc2F)cc1F [Compound I-317] | < 0.1 µM
– | – | OC[C@H]1CCN(c2nc(-c3cc(-c4ccon4)n(Cc4ccccc4F)n3)ncc2F)[C@@H](CO)C1 [Compound I-318] | < 0.1 µM
– | – | O=C(O)[C@H]1[C@@H](c2ccccc2)CCCN1c1nc(-c2cc(-c3ccon3)n(Cc3ccccc3F)n2)ncc1F [Compound I-319] | < 0.1 µM
– | – | CN(C[C@H](O)CO)c1nc(-c2cc(-c3ccon3)n(Cc3ccccc3F)n2)ncc1F [Compound I-320] | < 0.1 µM

SMILES | Emax [2] | EC50 [2] | EC50 [1]
CN(CC1(C(=O)O)CCOCC1)c1nc(-c2cc(-c3ccon3)n(Cc3ccccc3F)n2)ncc1F [Compound I-238] | 60 to 80% | 0.1 to 0.5 µM | –
